Measurements published in US9968579B2, “ATRA for modulating Pin1 activity and stability” (Beth Israel Deaconess Medical Center, Inc., priority 2014, dated 2018).

Tests used:
breast cancer cells = assay: Effect of pan-RARs inhibitor/activator on ATRA-induced Pin1 degradation and growth inhibition; assay type: cell-based, human
Excerpt: To examine whether the inhibitory effects of ATRA on breast cancer cell growth were related to RAR activation, Ro-415253 and AC-93253 were used. […] Thus, ATRA-mediated growth inhibition is likely via Pin1 degradation in breast cancer cells, as in APL cells.

Pin1 PPIase domain = target: T1, Pin1 PPIase domain (Homo sapiens, UniProt Q13526); assay: FP-HTS / FP assay, competition with pTide probe for Pin1 binding; details: for Pin1 binding among retinoids tested: FIG. 4F; for interaction with Pin1 in FP assay: 0.5 h or 24 h incubation with Pin1
T1 construct: Pin1 PPIase domain was used instead of its full-length protein
Excerpt: A FP-HTS screening for small molecule compounds that may compete with pTide for binding to dephosphorylated and thus activated Pin1 was developed. Pin1 PPIase domain was used instead of its full-length protein to ensure the identification of compounds that selectively target the catalytic site of monomeric Pin1. The HTS probe pTide was conjugated with FITC or TAMRA and assay conditions optimized to ensure that the probe only binds to the catalytic active site with certain essential residues, such as K63 and R69 (PDB: 2Q5A).
(§1) As observed in FIGS. 4B and 4C, 13cRA and its pairing compound ATRA include a carboxylic acid and a hydrophobic six-membered aromatic ring.
To examine whether the carboxylic acid in ATRA serves as an alternative of phosphate group that binds to Pin1, several structurally similar retinoids with substituted carboxylic or aromatic groups, as well as the new generation of retinoid drugs including Fenretinide and Bexarotene were tested for Pin1 binding.

[1] = test system: PML-RARα and Pin1 in NB4 cells; assay: PML-RARα and Pin1 protein levels in NB4 cells; assay type: cell-based, human
[2] = test system: APL cells isolated from hCG-PML-RARα transgenic mice
NB4 cells = assay: Cell growth of NB4 cells; assay type: cell-based, human; details: combination with 1.5 μM ATRA; superior to high dose ATRA
Excerpt: (K) Potentiated effects of ATRA with SIRT1 inhibitors, NAM or Splito, on cell growth of NB4.
Next, in a consideration to test the role of activated Pin1 monomer in APL, the anti-proliferative effect of ATRA in the presence of the SIRT1 inhibitors, NAM or Splito, to deplete the monomeric Pin1 reservoir was examined.

AU565 cells = assay: ATRA sensitivity of AU565 cells in combination with SIRT1 inhibitors; assay type: cell-based, human; details: ATRA-resistant AU565 cells
Excerpt: Moreover, SIRT1 KD cells were more sensitive to growth inhibition, and Pin1 degradation induced by ATRA. These findings support the notion that ATRA selectively targets the activated Pin1 monomer.

cyclin D1 promoter = assay: Cyclin D1 promoter activation by Pin1; assay type: cell-based; details: dose-dependent
Excerpt: FIG. 6 illustrates study results 600 in which ATRA may have anticancer activity in other cancer types. Breast cancer was used as model due to the substantial oncogenic role of Pin1 in vitro and in vivo. The first step was to test whether ATRA may reverse the oncogenic phenotypes induced by Pin1 overexpression, including induction of centrosome amplification, activation of the cyclin D1 promoter, and enhancement of foci formation.

[3] = test system: Pin1 and substrate oncogenes and tumor suppressors; assay: Protein levels of Pin1 and its substrates in breast cell lines; assay type: cell-based, human
Excerpt: (I, J) Either ATRA (I) or inducible Pin1 KD (J) shared the same ability to reduce protein levels of Pin1 and its substrate oncogenes including cyclin D1, HER2, ERα, Akt, NFkB/p65, c-Jun and PKM2 as well as to increase protein levels of Pin1 substrate tumor suppressors, Smad and SMRT, in breast cancer MDA-MB-231, SKBR3 and T47D cells, with ATRA having little effects on normal MCF10A cells. TNBC, triple negative breast cancer.
To further support that ATRA targets Pin1 in breast cancer, it was examined whether ATRA would affect protein levels of a selected set of oncogenes and tumor suppressors, whose protein stability is shown to be regulated by Pin1 in breast cancer. […] To further support that these effects of ATRA are due to Pin1 degradation, it was stably introduced tetracycline-inducible Pin1 KD into these cells. Inducible Pin1 KO produced the same effects on the oncogenes and tumor suppressors, as did ATRA (FIG. 6J). Taken together, ATRA selectively ablated activated Pin1 to inhibit many cancer-driving pathways simultaneously.

MDA-MB-231 cells = assay: MDA-MB-231 xenograft in nude mice; assay type: in vivo, female nude mice; details: intraperitoneally 3 times a week for 8 weeks
Procedure: (A, B) ATRA inhibited tumor growth of MDA-MB-231 cells in mice. Female nude mice were flank-inoculated with 2×10^6 MDA-MB-231 cells and, 1 week later, implanted with 5 or 10 mg 21 day slow-releasing ATRA pellets. Tumor sizes were measured weekly and tumor tissues were collected from the mice after 7 weeks (A). Curves of tumor volume were plotted after calculation with formula of L×W^2×0.52 (B) (n=3).
FIG. 7 illustrates study results 700 in which the slow-releasing ATRA inhibits human triple negative breast cancer tumor growth in mice. In the pilot experiments, female nude mice were subcutaneously injected with MDA-MB-231 cells into the flank, followed by administering ATRA or vehicle intraperitoneally 3 times a week for 8 weeks. […] This ATRA's modest anti-tumor activity could be due to its short half-life of less than 1 h in humans. Thus, slow-releasing ATRA pills to maintain its constant drug level in mice was used. Mice were again subcutaneously injected with MDA-MB-231 cells into the flank and implanted 1 week later with slow-releasing ATRA or placebo pills for 8 weeks. […] Tumor samples were then collected at the end and immunoblotted with antibodies against Pin1 and its target cyclin D1.

[4] = test system: MDA-MB-231 cells expressing Q33K or E100D Pin1 mutant; assay: Xenograft of MDA-MB-231 cells expressing Q33K or E100D Pin1 mutant; design: species or system nude mice; details: mouse, in vivo
Procedure: (H-J) ATRA inhibited tumor growth of MDA-MB-231 cells in mice, even after over-expression of monomeric Q33K or E100D Pin1 mutant. Nude mice were injected with 2×10^6 MDA-MB-231 cells and treated with ATRA pellets at indicated dosages. Tumors were harvested 7 weeks later. Quantitative curve of tumor volumes developed by Q33K (I) or E100D (J)-expressing MDA-MB-231 in the nude mice (n=3).
It was examined whether ATRA is suitable for treating tumors driven by cancer-derived monomeric Pin1 mutants given that it induces degradation of monomeric Pin1. It is stably expressed WT, Q33K or E100D Flag-Pin1 in MDA-MB-231 cells, and then treated them with ATRA. […] Collectively, ATRA has potent anti-tumor activity against breast cancer driven by WT Pin1 or its cancer-derived monomeric mutants via ablating Pin1.

Pin1 [5] = target: T2, Pin1 (Homo sapiens, UniProt Q13526); assay: In vitro PPIase assay; details: dose-dependent
Pin1 acetylation = Pin1 acetylation in cells (Flag IP, acetyl-lysine immunoblot); assay type: cell-based
Excerpt: FIG. 1 depicts HTS results for glucose starvation induced Pin1 deacetylation in cells 100. In order to perform glucose starvation induced Pin1 deacetylation in cells, cells were transfected with Flag-Pin1 and subjected to various stresses, followed by Flag IP before with immunoblotting acetyl-lysine (AcK) or Flag antibody. Glu-, glucose starvation; HS, heat shock; UV, UV radiation. […] Overexpression of p300-HA increased Pin1 acetylation in cells. Various histone acetyl transferases were co-transfected with Flag-Pin1 into cells, followed by assaying acetylated Pin1. p300 inhibitors, Garcinol (Gar) and Anacardic acid (AnAc), reversed p300-increased Pin1 acetylation.
To corroborate this notion, 2-deoxyglucose (2-DG), a glucose analog, was used to mimic glucose starvation (Wick et al., 1955). […] Protein acetylation may be catalytically modulated by a particular pair of histone acetyl transferase (HAT) and deacetylase (HDAC) (Yang and Seto, 2007). To identify the HAT and HDAC that modulates Pin1 acetylation, Flag-tagged Pin1 was expressed with several HATs including p300, CBP or GCN5 in cells, followed by coimmunoprecipitation (Co-IP) with anti-Flag antibody and immunoblotting with anti-acetyl lysine antibody.

Pin1 S71E mutant = Pin1 S71E mutant (Homo sapiens, UniProt Q13526, S71E); assay: Binding to phosphorylation-mimicking Pin1 S71E mutant
Excerpt: as §1
The levels of S71 phosphorylation in different cell lines were tightly correlated with ATRA's sensitivity. […] It has been previously shown that phosphorylation on S71 forms salt bridges with K63 and R69, which are the same two residues that coordinated for the binding to the carboxylic acid group of ATRA (FIG. 6H). Thus S71 phosphorylation by DAPK1 may regulate ATRA's sensitivity of cancer cells.

Pin1 [6] = target: T2, Pin1; details: read-out: Kd (affinity for Pin1); cited from earlier work
cells = details: cited from earlier work

## CCCCCCCOc1cc2c(cc1/C(C)=C/c1ccc(C(=O)O)cc1)C(C)(C)CCS2(=O)=O [Ro-415253]
Breast cancer cells
  effect on Pin1 degradation or cell growth inhibition induced by ATRA: neither the pan-RARs inhibitor nor the pan-RARs activator had any obvious effects

## C=C(c1ccc(C(=O)O)cc1)c1cc2c(cc1C)C(C)(C)CCC2(C)C [Bexarotene]
Pin1 PPIase domain
  Pin1 binding among retinoids tested: only marginal Pin1 interaction

## O=C(O[C@@H]1Cc2c(O)cc(O)cc2O[C@@H]1c1cc(O)c(O)c(O)c1)c1cc(O)c(O)c(O)c1 [EGCG]
[1]
  PML-RARα degradation: induced PML-RARα degradation in a dose-dependent manner
  Pin1 degradation: inhibited Pin1 without degrading it
[2]; after 20 days
  PML-RARα in the bone marrow: dramatically reduced
[2]; mouse, in vivo
  condition of treated mice: rather sick
  potency in reducing PML-RARα and spleen size compared with ATRA: less potent
[2]; versus enlarged spleens in placebo group
  spleen weights: remained nearly at basal levels

## O=C(O)c1ccccc1O [salicylic acid]
Pin1 PPIase domain
  interaction with Pin1 in FP assay: negative control

## NC(=O)c1cccnc1 [NAM]
NB4 cells
  effect on anticancer effects of low dose ATRA: greatly potentiated
AU565 cells
  increase of ATRA sensitivity: 2 orders of magnitude

## O=C1CCc2c(ccc3ccccc23)O1 [Splito]
NB4 cells
  effect on anticancer effects of low dose ATRA: greatly potentiated
AU565 cells
  effect on ATRA sensitivity: increase ATRA sensitivity

## CCOC(=O)CN1C(=O)c2ccc3c4c(ccc(c24)C1=O)C(=O)N(CC(=O)OCC)C3=O [PiB]
[1]
  PML-RARα degradation: induced PML-RARα degradation in a dose-dependent manner
  Pin1 degradation: inhibited Pin1 without degrading it

## CC1=C(/C=C/C(C)=C/C=C/C(C)=C/C(=O)O)C(C)(C)CCC1 [ATRA, all-trans-retinoic acid]
Pin1 PPIase domain
  interaction with Pin1 in FP assay: interacted with Pin1 in a dose-dependent manner
  Pin1 binding among retinoids tested: most potent
Pin1 PPIase domain; after 0.5 h Pin1 incubation
  Pin1 binding potency, ATRA versus 13cRA: more potent than 13cRA
Pin1 PPIase domain; after 24 h Pin1 incubation
  Pin1 binding potency, ATRA versus 13cRA: the same potency
Cyclin D1 promoter
  inhibition of Pin1 activation of the cyclin D1 promoter: fully inhibited
[3]; T47D, SKBR3 or MDA-MB-231
  protein levels of Pin1 and oncogenic substrates (cyclin D1, HER2, ERα, Akt, NFkB/p65, c-Jun, PKM2): dose-dependent protein reduction
  protein levels of tumor suppressor substrates Smad2/3 or SMRT: protein induction
[3]; normal MCF10A cells
  changes in Pin1, oncogenes or tumor suppressors: no appreciable changes
MDA-MB-231 cells
  tumor size: slightly smaller tumors than control mice
[4]
  Pin1 mutants and cyclin D1 in tumors: dose-dependently reduced both Q33K and E100D Pin1 mutants and cyclin D1 in tumors
  inhibition of Q33K or E100D Pin1 mutant-promoted xenograft tumor growth: dose-dependently and effectively inhibited

## CC1=C(/C=C/C(C)=C/C=C/C(C)=C/CO)C(C)(C)CCC1 [retinol]
Pin1 PPIase domain
  Pin1 binding among retinoids tested: completely inactive

## CC1=C(/C=C/C(C)=C/C=C/C(C)=C/C(=O)Nc2ccc(O)cc2)C(C)(C)CCC1 [Fenretinide]
Pin1 PPIase domain
  Pin1 binding among retinoids tested: only marginal Pin1 interaction

## CC1=C(/C=C/C(C)=C/C=C/C(C)=C\C(=O)O)C(C)(C)CCC1 [13cRA, 13-cis-retinoic acid]
Pin1 PPIase domain
  interaction with Pin1 in FP assay: interacted with Pin1 in a dose-dependent manner
Pin1 PPIase domain; 8200 compound chemical libraries
  rank as Pin1 inhibitor hit by Z score in FP-HTS: No. 1 hit
Pin1 [5]
  inhibition of Pin1 PPIase activity: completely inhibited

## O=CC[C@@H](O)[C@H](O)[C@H](O)CO [2-DG, 2-deoxyglucose]
Pin1 acetylation; mimic of glucose starvation
  Pin1 acetylation: reduction in Pin1 acetylation in a time- or dose-dependent manner

## CCCCCCCCCCCCCCCc1cccc(O)c1C(=O)O [Anacardic acid]
Pin1 acetylation; p300 over-expressed
  effect on p300-increased Pin1 acetylation: reversed

## Bth-d-phos.Thr-Pip-Nal [pTide]
Pin1 S71E mutant
  binding to Pin1 S71E mutant: unable to bind
Pin1 [6]
  Kd: 1.2 nM
cells
  ability to enter cells: cannot enter cells

## CC(=O)OC/C=C(C)/C=C/C=C(C)/C=C/C1=C(C)CCCC1(C)C [retinyl acetate]
Pin1 PPIase domain
  Pin1 binding among retinoids tested: completely inactive

## CC1=C(/C=C/C(C)=C/C=C/C(C)=C/C=O)C(C)(C)CCC1 [retinal]
Pin1 PPIase domain
  Pin1 binding among retinoids tested: completely inactive
